Experimental findings from patent EP0412158A1, “ONCOSTATIC DRUG” (priority 1987, dated 1988) are described below.

Common to all, as to format: in vivo, female BALB/C mice
The test system of data set [1] is methyl cholanthrene A tumor. Description: Methyl cholanthrene A tumor, evaluation by weight of tumor (Examples 13 to 16). Particulars: for Average weight of tumor / Number of tumorless mice /total number of mice / T/control: 100 mg/kg; for Average weight of tumor / Number of tumorless mice /total number of mice: ip × 9; for T/control: ip×9, tumor weight. Here is the method: Compound E, an alkali metal salt of polymolybdic acid (Example 13), and other compounds (Compounds F to H) mentioned above were severally dissolved in distilled water to obtain aqueous solutions containing the compounds in a fixed concentration of 10 mg/ml. These aqueous solutions were administered to female BALB/C mice (five weeks old) to which methyl cholanthrene A tumor had been transplanted to test the compounds for antineoplastic activity. To be morespecific, the methyl cholanthrene A was transplanted to the mice in a ratio of 1.0 x 10^5 cells per mouse and the aqueous solution was continuously administered (at a dose of 100 mg/kg of body weight) for nine days by intraperitoneal injection. On elapse of 14 days after the stop of the administration, the tumors in the mice were weighed. For comparison, mice to which the aqeuous solution was not administered and the mice to which aminonitrosourea was administered were similarly tested.

The subject of data set [2] is methyl cholanthrene A. Briefly: Methyl cholanthrene A tumor, evaluation by elongation of period of survival (Examples 17 to 20). Particulars: 100 mg/kg ×9. The method, then:
The aforementioned active compounds, E to H, were severally dissolved in distilled water to obtain aqueous solutions containing the compounds in a fixed concentration of 10 mg/ml. To female BALB/C mice (five weeks old) to which methyl cholanthrene A had been transplanted in a ratio of 1.0 x 10^5 cells per mouse, the aqueous solutions were continuously administered at a dose of 100 mg/kg of body weight for nine days by intraperitoneal injection to determine the mices periods of survival. For comparison, mice to which no aqueous solution was administered and mice to which aminonitrosourea was administered were similarly tested.

For data set [3], the system named is methyl cholanthrene A tumor. Description: Methyl cholanthrene A tumor, evaluation by size of tumor (Examples 31 to 33). More on the design: Average weight of tumor ± SE / Range of average tumor weight after elapse of 21 days ± SE: unit not given here. Particulars: 25 mg/kg, ip × 9; for Average weight of tumor ± SE: after elapse of 14 days. The method, then:
A heteropoly acid salt, Na5[IM06O24]•34H2O (Compound M), and other compounds (Compounds N and O ) were severally dissolved in distilled water to obtain aqueous solutions containing the salts in a fixed concentration of 10 mg/ml. To female BALB/C mice (five weeks old) to which methyl cholanthrene A tumor had been transplanted, the aqueous solutions were administered to test the compounds for antineoplastic activity. To be specific, the methyl cholanthrene A was transplanted to the mice at a ratio of 1.0 x 10^5 cells per mouse and the aqueous solutions were administered ([…]) for 9 consecutive days by intraperitoneal injection. On elapse of 14 and 21 days after the stop of the administration, the sizes of tumors in the mice were measured. For comparison, mice to which no aqueous solution was administered and mice to which aminonitrosourea was administered were similarly tested.

Data set [4] concerns methyl cholanthrene A. Description: Methyl cholanthrene A tumor, evaluation by elongation of period of survival (Examples 31, 34 and 35). Particulars: for Average number of days of survival ±SE / ILS / Number of mice of no tumor/total number of mice: 25 mg/kg, ip × 9; for Number of mice of no tumor/total number of mice: observed 60 days after transplantation; for Change in body weight after elapse of 10 days: mouse, in vivo. The method, then:
The active compounds, M to 0, mentioned above were severally dissolved in distilled water to obtain aqueous solutions containing the compounds in a fixed concentration of 10 mg/ml. To be specific, to female BALB/C mice (five weeks old) to which methyl cholanthrene A had been transplanted in a ratio of 1.0 x 10^5 cells per mouse, […] for 9 consecutive days to determine the mice's periods of survival. For comparison, mice to which no aqueous solution was administered and mice to which aminonitrosourea was administered were similarly tested.

In general, ILS refers to the gain in survival time of treated over control animals, in per cent.

On to `O.O.O.O.[K+].[K+].[K+].[K+].[K+].[K+].[O]=[Mo](=[O])([O-])[O][Mo](=[O])(=[O])[O][Mo](=[O])([O-])([O-])[O][Mo](=[O])(=[O])[O][Mo](=[O])([O-])([O-])[O][Mo](=[O])(=[O])[O][Mo](=[O])(=[O])[O-]` [Compound E, K6 [Mo7O24] • 4H2O], for which, in data set [1], the “Average weight of tumor” value is recorded as 1281.6±184.2(8) mg, the “Number of tumorless mice /total number of mice” value was 0/8 and the T/control amounted to 0.498. Also, the toxicity entry in data set [1] (100 mg/kg.ip for nine days, judged by increase of body weight, result in words) is on record as “very slight toxicity”. For the same compound, in data set [2], the “Average number of days of survival” value is on record as 35.5±2.2(8) days, the “Number of toxically killed mice/total number of mice” value was 0/8 and the “Ratio of prolonging life” value came to 57.8%.
In the case of `O.O.O.O.[Na+].[Na+].[Na+].[Na+].[Na+].[Na+].[O]=[Mo](=[O])([O-])[O][Mo](=[O])(=[O])[O][Mo](=[O])([O-])([O-])[O][Mo](=[O])(=[O])[O][Mo](=[O])([O-])([O-])[O][Mo](=[O])(=[O])[O][Mo](=[O])(=[O])[O-]` [Compound F, Na6 [Mo7O24] • 4H2O], in data set [1], the “Average weight of tumor” value is on record as 1592.8±257.6(8) mg, the “Number of tumorless mice /total number of mice” value is listed as 0/8 and the T/control was 0.618. Moreover, in data set [2], the “Average number of days of survival” value is 35.0±5.7(8) days, the “Number of toxically killed mice/total number of mice” value is given as 0/8 and the “Ratio of prolonging life” value worked out at 55.6%.
Regarding `O.O.O.O.[Li+].[Li+].[Li+].[Li+].[Li+].[Li+].[O]=[Mo](=[O])([O-])[O][Mo](=[O])(=[O])[O][Mo](=[O])([O-])([O-])[O][Mo](=[O])(=[O])[O][Mo](=[O])([O-])([O-])[O][Mo](=[O])(=[O])[O][Mo](=[O])(=[O])[O-]` [Compound G, Li6 [Mo7O24] • 4H2O], in data set [1], the “Average weight of tumor” value is 1760±254.6(8) mg, the “Number of tumorless mice /total number of mice” value is 0/8 and the T/control worked out at 0.683. Moreover, in data set [2], the “Average number of days of survival” value is 31.6±5.4(8****) days, the “Number of toxically killed mice/total number of mice” value was 0/8 and the “Ratio of prolonging life” value turned out to be 40.4%.
Take `O.O.O.O.[Cs+].[Cs+].[Cs+].[Cs+].[Cs+].[Cs+].[O]=[Mo](=[O])([O-])[O][Mo](=[O])(=[O])[O][Mo](=[O])([O-])([O-])[O][Mo](=[O])(=[O])[O][Mo](=[O])([O-])([O-])[O][Mo](=[O])(=[O])[O][Mo](=[O])(=[O])[O-]` [Compound H, Cs6 [Mo7O24] • 4H2O]: in data set [1], the “Average weight of tumor” value is 1599.5±340.6(8) mg, the “Number of tumorless mice /total number of mice” value is 0/8 and the T/control was 0.621. In data set [2], the “Average number of days of survival” value is on record as 32.9±5.5(8) days, the “Number of toxically killed mice/total number of mice” value is listed as 0/8 and the “Ratio of prolonging life” value is on record as 46.2%.
For Na3H6 [CrMo6O24] • 8H20 [Compound O], the “Average weight of tumor ± SE” value in data set [3] is recorded as 585.6±166.8 (10). Also, in data set [3] (tumor weight after 14 days), the T/C is 0.784. Besides, the T/C in data set [3] (tumor weight after 21 days) was 0.832. In data set [4], the “Average number of days of survival ±SE” value was 35.10±3.16(10)*** * days, the ILS was determined as 41.0%, the “Number of mice of no tumor/total number of mice” value is listed as 0/10 and the “Change in body weight after elapse of 10 days” value is recorded as “(+)1.22”.
For “[NH4]3 H6 [CoMo6O24] • 7H20 [Compound N]”, in data set [3], the “Range of average tumor weight after elapse of 21 days ± SE” value was 693.6±144.3 (9) and the “Average weight of tumor ± SE” value is on record as 448.5±166.0 (10). Moreover, the T/C in data set [3] (tumor weight after 14 days) worked out at 0.600. The T/C in data set [3] (tumor weight after 21 days) turned out to be 0.301. In addition, in data set [4], the “Average number of days of survival ±SE” value is 39.30±3.73(10)*** * days, the ILS came out at 57.0%, the “Number of mice of no tumor/total number of mice” value is recorded as 2/10 and the “Change in body weight after elapse of 10 days” value is “(+)0.56”.
